According to patent US9260439B2, “Dihydropyrrolopyrimidine derivatives” (PFIZER INC., priority 2014, dated 2016):

biological target: truncated PI3Kα (p110α/iSH2 p85α) (Homo sapiens (Human), UniProt P42336); test: PI3KA_Act fluorescence polarization kinase assay (Ki); assay type: biochemical; conditions: 1 mM ATP
Outline: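 Ki values result from fitting fluorescence polarization signals to the Morrison equation for tight-binding competitive inhibitors. The detector was GST-Grp1 PH domain with TAMRA-PIP3, read after a 30 min room-temperature reaction of 0.5 nM truncated PI3Kα and 30 μM PIP2 at pH 7.4 in HEPES/NaCl/MgCl2/DTT/CHAPS buffer. Compounds were tested as 12-point 3-fold dilutions from 3 μM.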

Chain of truncated PI3Kα (p110α/iSH2 p85α) (P42336 whole entry, the tested form may be a part): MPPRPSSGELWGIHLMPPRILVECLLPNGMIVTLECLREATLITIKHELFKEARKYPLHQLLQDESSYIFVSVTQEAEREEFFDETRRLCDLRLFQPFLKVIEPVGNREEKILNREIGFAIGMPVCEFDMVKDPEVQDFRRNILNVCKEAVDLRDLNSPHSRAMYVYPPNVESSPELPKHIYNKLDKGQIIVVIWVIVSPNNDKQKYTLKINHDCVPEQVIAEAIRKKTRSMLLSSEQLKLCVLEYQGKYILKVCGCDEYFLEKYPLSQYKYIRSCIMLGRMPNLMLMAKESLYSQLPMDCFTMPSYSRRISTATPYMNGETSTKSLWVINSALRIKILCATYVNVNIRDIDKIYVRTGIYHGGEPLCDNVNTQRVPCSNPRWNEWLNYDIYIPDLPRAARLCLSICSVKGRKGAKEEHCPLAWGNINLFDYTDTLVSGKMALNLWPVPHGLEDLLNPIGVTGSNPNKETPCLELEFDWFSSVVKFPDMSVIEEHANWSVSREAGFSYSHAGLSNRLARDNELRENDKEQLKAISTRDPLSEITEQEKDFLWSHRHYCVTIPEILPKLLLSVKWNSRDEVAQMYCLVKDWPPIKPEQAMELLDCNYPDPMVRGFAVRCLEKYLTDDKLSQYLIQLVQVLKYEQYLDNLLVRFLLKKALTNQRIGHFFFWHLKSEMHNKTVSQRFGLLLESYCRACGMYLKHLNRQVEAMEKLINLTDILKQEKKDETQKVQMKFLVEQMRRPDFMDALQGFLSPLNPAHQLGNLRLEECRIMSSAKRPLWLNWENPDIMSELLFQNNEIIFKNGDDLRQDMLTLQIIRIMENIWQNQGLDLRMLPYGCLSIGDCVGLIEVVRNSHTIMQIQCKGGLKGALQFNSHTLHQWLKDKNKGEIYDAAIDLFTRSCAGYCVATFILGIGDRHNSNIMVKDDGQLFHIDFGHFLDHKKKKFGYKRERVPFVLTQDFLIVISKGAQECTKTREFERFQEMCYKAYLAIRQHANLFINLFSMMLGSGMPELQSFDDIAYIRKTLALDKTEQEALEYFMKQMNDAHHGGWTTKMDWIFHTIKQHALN

Row | SMILES | PI3KA_Act Ki
1 | C[C@]1(N2CCc3c(-c4cnc(N)nc4)nc(N4CCOCC4)nc32)CCN(C(=O)[C@H]2CCCN2)C1.Cl [Example 382, {(3S)-3-[4-(2-aminopyrimidin-5-yl)-2-(morpholin-4-yl)-5,6-dihydro-7H-pyrrolo[2,3-d]pyrimidin-7-yl]-3-methylpyrrolidin-1-yl}[(2R)-pyrrolidin-2-yl]methanone hydrochloride] | <0.018 nM
2 | C[C@]1(N2CCc3c(-c4cnc(N)nc4)nc(N4CCOCC4)nc32)CCN(C(=O)[C@]2(F)CCNC2)C1.Cl [Example 383, {(3S)-3-[4-(2-aminopyrimidin-5-yl)-2-(morpholin-4-yl)-5,6-dihydro-7H-pyrrolo[2,3-d]pyrimidin-7-yl]-3-methylpyrrolidin-1-yl}[(3S)-3-fluoropyrrolidin-3-yl]methanone hydrochloride] | <0.018 nM
3 | C[C@]1(N2CCc3c(-c4cnc(N)nc4)nc(N4CCOCC4)nc32)CCN(C(=O)[C@@]2(F)CCNC2)C1.Cl [Example 384] | <0.018 nM
4 | Cn1nccc1C(=O)N1CC[C@](C)(N2CCc3c(-c4cnc(N)nc4)nc(N4CCOCC4)nc32)C1 [Example 385, {(3S)-3-[4-(2-aminopyrimidin-5-yl)-2-(morpholin-4-yl)-5,6-dihydro-7H-pyrrolo[2,3-d]pyrimidin-7-yl]-3-methylpyrrolidin-1-yl}(1-methyl-1H-pyrazol-5-yl)methanone] | <0.018 nM
5 | Cc1n[nH]cc1C(=O)N1CC[C@](C)(N2CCc3c(-c4cnc(N)nc4)nc(N4CCOCC4)nc32)C1 [Example 386, {(3S)-3-[4-(2-aminopyrimidin-5-yl)-2-(morpholin-4-yl)-5,6-dihydro-7H-pyrrolo[2,3-d]pyrimidin-7-yl]-3-methylpyrrolidin-1-yl}(3-methyl-1H-pyrazol-4-yl)methanone] | <0.018 nM
6 | C[C@]1(N2CCc3c(-c4cnc(N)nc4)nc(N4CCOCC4)nc32)CCN(C(=O)c2cn[nH]c2)C1 [Example 387, {(3S)-3-[4-(2-aminopyrimidin-5-yl)-2-(morpholin-4-yl)-5,6-dihydro-7H-pyrrolo[2,3-d]pyrimidin-7-yl]-3-methylpyrrolidin-1-yl}(1H-pyrazol-4-yl)methanone] | <0.018 nM
7 | C[C@]1(N2CCc3c(-c4cnc(N)nc4)nc(N4CCOCC4)nc32)CCN(C(=O)c2ncc[nH]2)C1 [Example 388, {(3S)-3-[4-(2-aminopyrimidin-5-yl)-2-(morpholin-4-yl)-5,6-dihydro-7H-pyrrolo[2,3-d]pyrimidin-7-yl]-3-methylpyrrolidin-1-yl}(1H-imidazol-2-yl)methanone] | <0.018 nM
8 | C[C@]1(N2CCc3c(-c4cnc(N)nc4)nc(N4CCOCC4)nc32)CCN(C(=O)c2cc[nH]n2)C1 [Example 389, {(3S)-3-[4-(2-aminopyrimidin-5-yl)-2-(morpholin-4-yl)-5,6-dihydro-7H-pyrrolo[2,3-d]pyrimidin-7-yl]-3-methylpyrrolidin-1-yl}(1H-pyrazol-3-yl)methanone] | <0.018 nM
9 | Cn1ccnc1C(=O)N1CC[C@](C)(N2CCc3c(-c4cnc(N)nc4)nc(N4CCOCC4)nc32)C1 [Example 390, {(3S)-3-[4-(2-aminopyrimidin-5-yl)-2-(morpholin-4-yl)-5,6-dihydro-7H-pyrrolo[2,3-d]pyrimidin-7-yl]-3-methylpyrrolidin-1-yl}(1-methyl-1H-imidazol-2-yl)methanone] | 0.084 nM
10 | Cn1ccc(C(=O)N2CC[C@](C)(N3CCc4c(-c5cnc(N)nc5)nc(N5CCOCC5)nc43)C2)n1 [Example 391, {(3S)-3-[4-(2-aminopyrimidin-5-yl)-2-(morpholin-4-yl)-5,6-dihydro-7H-pyrrolo[2,3-d]pyrimidin-7-yl]-3-methylpyrrolidin-1-yl}(1-methyl-1H-pyrazol-3-yl)methanone] | 0.022 nM
11 | CNC(=N)N1CC[C@](C)(N2CCc3c(-c4cnc(N)nc4)nc(N4CCOCC4)nc32)C1 [Example 392, (3S)-3-[4-(2-aminopyrimidin-5-yl)-2-(morpholin-4-yl)-5,6-dihydro-7H-pyrrolo[2,3-d]pyrimidin-7-yl]-N,3-dimethylpyrrolidine-1-carboximidamide] | 0.101 nM
12 | CCNC(=O)N1CC[C@@](C)(N2CCc3c(-c4cnc(N)nc4)nc(N4CCOCC4)nc32)C1 [Example 393, (3R)-3-[4-(2-aminopyrimidin-5-yl)-2-(morpholin-4-yl)-5,6-dihydro-7H-pyrrolo[2,3-d]pyrimidin-7-yl]-N-ethyl-3-methylpyrrolidine-1-carboxamide] | 0.085 nM
13 | CC(C)NC(=O)N1CC[C@@](C)(N2CCc3c(-c4cnc(N)nc4)nc(N4CCOCC4)nc32)C1 [Example 394, (3R)-3-[4-(2-aminopyrimidin-5-yl)-2-(morpholin-4-yl)-5,6-dihydro-7H-pyrrolo[2,3-d]pyrimidin-7-yl]-3-methyl-N-(propan-2-yl)pyrrolidine-1-carboxamide] | 0.112 nM
14 | CC(C)NC(=O)N1CC[C@](C)(N2CCc3c(-c4cnc(N)nc4)nc(N4CCOCC4)nc32)C1 [Example 395, (3S)-3-[4-(2-aminopyrimidin-5-yl)-2-(morpholin-4-yl)-5,6-dihydro-7H-pyrrolo[2,3-d]pyrimidin-7-yl]-3-methyl-N-(propan-2-yl)pyrrolidine-1-carboxamide] | 0.352 nM
15 | CC(C)(C)NC(=O)N1CC[C@@](C)(N2CCc3c(-c4cnc(N)nc4)nc(N4CCOCC4)nc32)C1 [Example 396, (3R)-3-[4-(2-aminopyrimidin-5-yl)-2-(morpholin-4-yl)-5,6-dihydro-7H-pyrrolo[2,3-d]pyrimidin-7-yl]-N-tert-butyl-3-methylpyrrolidine-1-carboxamide] | 0.121 nM
16 | CC(C)(C)NC(=O)N1CC[C@](C)(N2CCc3c(-c4cnc(N)nc4)nc(N4CCOCC4)nc32)C1 [Example 397, (3S)-3-[4-(2-aminopyrimidin-5-yl)-2-(morpholin-4-yl)-5,6-dihydro-7H-pyrrolo[2,3-d]pyrimidin-7-yl]-N-tert-butyl-3-methylpyrrolidine-1-carboxamide] | 0.101 nM
17 | C[C@@]1(N2CCc3c(-c4cnc(N)nc4)nc(N4CCOCC4)nc32)CCN(CC(N)=O)C1 [Example 398, 2-{(3R)-3-[4-(2-aminopyrimidin-5-yl)-2-(morpholin-4-yl)-5,6-dihydro-7H-pyrrolo[2,3-d]pyrimidin-7-yl]-3-methylpyrrolidin-1-yl}acetamide] | 0.411 nM
18 | C[C@]1(N2CCc3c(-c4cnc(N)nc4)nc(N4CCOCC4)nc32)CCN(CC(N)=O)C1 [Example 399, 2-{(3S)-3-[4-(2-aminopyrimidin-5-yl)-2-(morpholin-4-yl)-5,6-dihydro-7H-pyrrolo[2,3-d]pyrimidin-7-yl]-3-methylpyrrolidin-1-yl}acetamide] | 0.074 nM
19 | CNC(=O)CN1CC[C@@](C)(N2CCc3c(-c4cnc(N)nc4)nc(N4CCOCC4)nc32)C1 [Example 400, 2-{(3R)-3-[4-(2-aminopyrimidin-5-yl)-2-(morpholin-4-yl)-5,6-dihydro-7H-pyrrolo[2,3-d]pyrimidin-7-yl]-3-methylpyrrolidin-1-yl}-N-methylacetamide] | 0.781 nM
20 | CNC(=O)CN1CC[C@](C)(N2CCc3c(-c4cnc(N)nc4)nc(N4CCOCC4)nc32)C1 [Example 401, 2-{(3S)-3-[4-(2-aminopyrimidin-5-yl)-2-(morpholin-4-yl)-5,6-dihydro-7H-pyrrolo[2,3-d]pyrimidin-7-yl]-3-methylpyrrolidin-1-yl}-N-methylacetamide] | 0.109 nM
21 | CN(C)C(=O)CN1CC[C@@](C)(N2CCc3c(-c4cnc(N)nc4)nc(N4CCOCC4)nc32)C1 [Example 402, 2-{(3R)-3-[4-(2-aminopyrimidin-5-yl)-2-(morpholin-4-yl)-5,6-dihydro-7H-pyrrolo[2,3-d]pyrimidin-7-yl]-3-methylpyrrolidin-1-yl}-N,N-dimethylacetamide] | 0.872 nM
22 | CN(C)C(=O)CN1CC[C@](C)(N2CCc3c(-c4cnc(N)nc4)nc(N4CCOCC4)nc32)C1 [Example 403, 2-{(3S)-3-[4-(2-aminopyrimidin-5-yl)-2-(morpholin-4-yl)-5,6-dihydro-7H-pyrrolo[2,3-d]pyrimidin-7-yl]-3-methylpyrrolidin-1-yl}-N,N-dimethylacetamide] | 0.053 nM
23 | CCOC(=O)N1CC[C@@](C)(N2CCc3c(-c4cnc(N)nc4)nc(N4CCOCC4)nc32)C1 [Example 404, ethyl (3R)-3-[4-(2-aminopyrimidin-5-yl)-2-(morpholin-4-yl)-5,6-dihydro-7H-pyrrolo[2,3-d]pyrimidin-7-yl]-3-methylpyrrolidine-1-carboxylate] | 0.128 nM
24 | CCOC(=O)N1CC[C@](C)(N2CCc3c(-c4cnc(N)nc4)nc(N4CCOCC4)nc32)C1 [Example 405, ethyl (3S)-3-[4-(2-aminopyrimidin-5-yl)-2-(morpholin-4-yl)-5,6-dihydro-7H-pyrrolo[2,3-d]pyrimidin-7-yl]-3-methylpyrrolidine-1-carboxylate] | <0.018 nM
25 | CC(C)OC(=O)N1CC[C@](C)(N2CCc3c(-c4cnc(N)nc4)nc(N4CCOCC4)nc32)C1 [Example 406, propan-2-yl (3S)-3-[4-(2-aminopyrimidin-5-yl)-2-(morpholin-4-yl)-5,6-dihydro-7H-pyrrolo[2,3-d]pyrimidin-7-yl]-3-methylpyrrolidine-1-carboxylate] | <0.018 nM
26 | CC(C)OC(=O)N1CC[C@@](C)(N2CCc3c(-c4cnc(N)nc4)nc(N4CCOCC4)nc32)C1 [Example 407, propan-2-yl (3R)-3-[4-(2-aminopyrimidin-5-yl)-2-(morpholin-4-yl)-5,6-dihydro-7H-pyrrolo[2,3-d]pyrimidin-7-yl]-3-methylpyrrolidine-1-carboxylate] | 0.235 nM
